Measured values: ChEMBL document CHEMBL1157956, “Aegicerin, the first oleanane triterpene with wide-ranging antimycobacterial activity, isolated from Clavija procera” (J Nat Prod, 2006)
Converted amounts (≈) assume the structure as drawn.

Assays:
[1] = system: Mycobacterium tuberculosis; assay: Antimicrobial activity against drug-susceptible Mycobacterium tuberculosis isolate by alamar blue assay; format: functional
[2] = system: Mycobacterium tuberculosis; assay: Antimicrobial activity against Mycobacterium tuberculosis H37Rv by alamar blue assay; format: functional
[3] = Cytotoxicity against african green monkey Vero cells; format: cell-based; conditions: chlorocebus sabaeus

Row | SMILES | MIC [1] | MIC [2] | GI50 [3]
1 | CC1(C)CC[C@]23CO[C@@]4(CC[C@@H]5[C@@]6(C)CC[C@H](O)C(C)(C)[C@@H]6CC[C@@]5(C)[C@]4(C)CC2=O)[C@@H]3C1 [AEGICERIN] | 1.6 µg/mL (≈ 3.5 µM) | 3.1 µg/mL (≈ 6.79 µM) | > 40 µg/mL
2 | NNC(=O)c1ccncc1 [ISONIAZID] | 0.125 µg/mL (≈ 0.911 µM) | 0.125 µg/mL (≈ 0.911 µM) | –
3 | CC1(C)CC[C@]23CO[C@@]4(CC[C@@H]5[C@@]6(C)CC[C@H](O)C(C)(C)[C@@H]6CC[C@@]5(C)[C@]4(C)C[C@H]2O)[C@@H]3C1 [PROTOPRIMULAGENIN A] | 200 µg/mL (≈ 436 µM) | 200 µg/mL (≈ 436 µM) | –
4 | CO[C@H]1/C=C/O[C@@]2(C)Oc3c(C)c(O)c4c(O)c(c(/C=N/N5CCN(C)CC5)c(O)c4c3C2=O)NC(=O)/C(C)=C\C=C\[C@H](C)[C@H](O)[C@@H](C)[C@@H](O)[C@@H](C)[C@H](OC(C)=O)[C@@H]1C [RIFAMPIN] | 0.063 µg/mL (≈ 0.0766 µM) | 0.063 µg/mL (≈ 0.0766 µM) | –
